Here are results for 1 molecule from US20150152091A1, “CROP ENHANCEMENT” (Syngenta Participations AG, priority 2012, published 2015).

Assay type in all cases: in vivo
Experiment [1] concerns Soybean seeds cv. Toliman. Briefly: Soybean seedling emergence in saturated cold test (seed treatment). The conditions noted are these: for Total shoot dry mass: per tray. On the procedure:
(§1) Soybean seeds cv. Toliman were treated with a test compound of formula I formulated as FS100, at a dose of 0.05 g ai/kg, 0.005 g ai/kg, or 0.0001 g ai/kg seeds. Seeds were planted on 2 cm levelled pre-chilled moist sand and covered with a 2 cm layer of a mixture of steamed soil and sand (1:1). Enough cold water (10° C.) was added to the sand-soil mixture to adjust soil moisture to 60% water holding capacity. The seeds were incubated at 10° C. in the dark for 10 days and transferred into a chamber with alternating temperature (25° C. day/23° C. night) and light source (12 h) for 10 days. Seedling emergence in % and dry mass of above parts of seedling per tray was determined at the end of the incubation period. The test was performed using four replicates (4×50 seeds).

Experiment [2] deals with Soybean seeds cv. Toliman. Briefly: Soybean seedling emergence in saturated warm test (seed treatment). The protocol: as §1, with “seeds). Treated seeds used in the saturated cold test were evaluated in parallel in a saturated warm test. Test conditions were the same as those described for the 10 day warm incubation period of the saturated cold test. Briefly, seeds were placed onto a saturated sand layer of 2 cm and covered with saturated sand-soil mixture (60% WHC) at room temperature. The seeds were incubated 10 days at 25° C. day/23° C. night and 12 h light. Seedling emergence and shoot dry mass was determined as described in the saturated cold test method. The test was performed using four replicates each 50 seeds.” for “seeds).”

In experiment [3] the test system is temperate cauliflower Spacestar seeds (Brassica oleracea cv Botrytis). In words: Standard paper germination test for Brassica, suboptimal conditions. The conditions noted are these: 25 μM, 10° C. in the light, set A. On the procedure:
The effect of compounds of Formula (I) on the germination of Brassica oleracea cv Botrytis or common cauliflower was tested on two types of cauliflowers: temperate types and tropical types. These two types were chosen because they display different sensitivities to the light conditions and temperature during germination. Germination of a sensitive temperate type is inhibited by light at 10° C. while for the tropical types germination at 20° is stimulated by the presence of light. […] The temperate seed batches tested are part of commercially produced seed batches of various varieties which are known to be sensitive to light at 10° C. These seeds were harvested and cleaned according standard commercial procedures. Ready seed batches were used (Ready indicates the processing level of these seeds: they have been cleaned and sized but received no other treatments). The tropical seed batches tested are part of seed batches produced as basic seed (for maintenance of the parental line) and were processed accordingly. Germination was assessed using the standard paper germination test for Brassica: Fifty seeds were placed on blue germination paper, which was moistened with the appropriate solutions, in closed oblong germination boxes. Each condition was tested in duplo. Germination boxes were placed in controlled germination cabinets with the appropriate temperature and light conditions. Germination of seeds was counted at regular intervals. Seeds were considered to be germinated when the radical had protruded the testa and endosperm (radical size approximately 1 mm). Test compounds were dissolved in DMSO at a concentration of 50 mM and stored at −20° C. The strigolactone analogue GR24 (commercially available as a racemic mixture of 2 diastereoisomers, referred to as “synthetic strigolactone GR-24” and first prepared by Johnson A. W. & all, Journal of the Chemical Society, Perkin Transactions 1, 1981, page 1734-1743) was included as positive control. Germination solutions were prepared by diluting the stock solutions with demineralized water till 25 μM. As control solutions demineralized water and a 0.05% v/v DMSO solution were used.

The mark [4] stands for this setting: Spacestar 11B313 (cold-sensitive).
Setting [5] is: Spacestar 11B314 (not cold sensitive).

Consider `CC1=CC(OC=C2C(=O)NC3c4ccccc4CC23)OC1=O` (stereo not shown) [Compound B1], for which the “Seedling emergence (%)” value was 58.5% in experiment [1] (0.0001 g ai/kg seeds, FS100); 67% in experiment [1] (0.005 g ai/kg seeds, FS100); 44.5% in experiment [1] (0.05 g ai/kg seeds, FS100, 10 days 10° C. dark then 10 days 25/23° C.); 91% in experiment [2] (0.0001 g ai/kg seeds); 94% in experiment [2] (0.005 g ai/kg seeds); 89% in experiment [2] (0.05 g ai/kg seeds, 10 days 25/23° C.). For the same molecule, the “Total shoot dry mass” value in experiment [1] (0.0001 g ai/kg seeds) came to 4.440 g; in experiment [1] (0.005 g ai/kg seeds) it was 5.065 g; in experiment [1] (0.05 g ai/kg seeds) it was 3.365 g; in experiment [2] (0.0001 g ai/kg seeds), 5.778 g; in experiment [2] (0.005 g ai/kg seeds), 6.440 g; in experiment [2] (0.05 g ai/kg seeds), 5.935 g. For the same molecule, the “Gmax (%), total germination as percentage of sown seeds” value in experiment [3] (setting [4]) is recorded as 60.5%; in experiment [3] (setting [5]) it was 93.5%. Also, the “stimulation (%), extra germination compared to the DMSO treatment” value in experiment [3] (setting [4]) is listed as 0.8%; in experiment [3] (setting [5]), 3.3%.
